Test results as given in patent US8143293B2, “Kinase inhibitors useful for the treatment of myleoprolific diseases and other proliferative diseases” (Deciphera Pharmaceuticals, LLC, priority 2007, dated 2012).

Legend:
[1] = molecular target: T1, C-Met kinase (SEQ ID NO:10) (Homo sapiens, UniProt P08581); assay: C-Met kinase (SEQ ID NO:10) assay, pyruvate kinase/lactate dehydrogenase coupled; settings: 0.5 h preincubation, ATP 100 μM; read-out: Biochemical IC50, c-Met Enzyme Assay
T1 construct: 956-1390, from Invitrogen, catalogue #PV3143; His6 (N-terminal leader MSYYHHHHHH... with TEV and thrombin sites) (N); purchased Invitrogen PV3143
Method in brief: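 Human c-Met residues 956-1390 with polyE4Y substrate, pH 7.5; compounds preincubated 0.5 h at 22°C before 100 μM ATP start. ADP formation followed via pyruvate kinase/lactate dehydrogenase coupling as NADH loss at A340 for 2 h at 30°C; rate over 1.0–2.0 h, IC50 from percent-inhibition curves.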

[2] = molecular target: T2, T315I Abl kinase (SEQ ID NO:2) (Homo sapiens, UniProt P00519, T315I); assay: T315I Abl kinase (SEQ ID NO:2) assay, pyruvate kinase/lactate dehydrogenase coupled; settings: 1 h preincubation, ATP 500 μM; read-out: Biochemical IC50, Abl T315I Enzyme Assay
T2 construct: purchased deCode Genetics
T2 sequence (P00519 with tags, fused parts or gaps T315I): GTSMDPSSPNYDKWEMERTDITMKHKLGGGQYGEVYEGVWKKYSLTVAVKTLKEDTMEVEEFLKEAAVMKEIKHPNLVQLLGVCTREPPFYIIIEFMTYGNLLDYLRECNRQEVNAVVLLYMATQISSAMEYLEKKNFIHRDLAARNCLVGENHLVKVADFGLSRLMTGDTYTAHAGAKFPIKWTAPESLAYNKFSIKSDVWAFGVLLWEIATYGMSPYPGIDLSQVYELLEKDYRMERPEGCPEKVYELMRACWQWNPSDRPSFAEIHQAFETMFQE
Description: Abl Kinase (SEQ ID NO:2) Assay
Activity of T315I Abl kinase (SEQ ID NO:2) was determined by following the production of ADP from the kinase reaction through coupling with the pyruvate kinase/lactate dehydrogenase system (e.g., Schindler, et al. Science (2000) 289, 1938-1942). In this assay, the oxidation of NADH (thus the decrease at A340 nm) was continuously monitored spectrophometrically. The reaction mixture (100 μl) contained Abl kinase (4.4 nM, […] Abl from deCode Genetics), peptide substrate (EAIYAAPFAKKK, 0.2 mM), MgCl2 (10 mM), pyruvate kinase (4 units), lactate dehydrogenase (0.7 units), phosphoenol pyruvate (1 mM), and NADH (0.28 mM) in 90 mM Tris buffer containing 0.2% octyl-glucoside and 1% DMSO, pH 7.5. Test compounds were incubated with T315I Abl (SEQ ID NO:2) and other reaction reagents at 30° C. for 1 h before ATP (500 μM) was added to start the reaction. The absorption at 340 nm was monitored continuously for 2 hours at 30° C. on Polarstar Optima plate reader (BMG). The reaction rate was calculated using the 1.0 to 2.0 h time frame. Percent inhibition was obtained by comparison of reaction rate with that of a control (i.e. with no test compound). IC50 values were calculated from a series of percent inhibition values determined at a range of inhibitor concentrations using software routines as implemented in the GraphPad Prism software package.

T1 sequence (P08581 with tags, fused parts or gaps): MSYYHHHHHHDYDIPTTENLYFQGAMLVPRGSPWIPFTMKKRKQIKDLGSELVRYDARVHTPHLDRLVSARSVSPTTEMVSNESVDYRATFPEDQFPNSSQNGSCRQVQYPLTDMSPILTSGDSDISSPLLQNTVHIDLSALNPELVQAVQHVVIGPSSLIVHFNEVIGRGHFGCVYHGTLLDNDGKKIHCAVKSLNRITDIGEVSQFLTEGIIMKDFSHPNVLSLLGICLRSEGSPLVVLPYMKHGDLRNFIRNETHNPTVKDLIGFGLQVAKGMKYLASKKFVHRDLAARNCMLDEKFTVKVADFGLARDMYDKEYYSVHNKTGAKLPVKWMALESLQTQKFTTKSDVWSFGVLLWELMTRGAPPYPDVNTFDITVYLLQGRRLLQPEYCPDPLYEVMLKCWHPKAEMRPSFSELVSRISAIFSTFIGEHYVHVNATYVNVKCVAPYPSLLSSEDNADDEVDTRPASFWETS

Compound | IC50 [1] [µM] | IC50 [2] [µM]
1-(2-fluoro-4-(2-(1-methyl-1H-pyrazol-4-yl)pyridin-4-yloxy)phenyl)-3-(3-(1-methylcyclopentyl)isoxazol-5-yl)urea [Example 14] | < 1 | < 0.1
Cn1cc(-c2cc(Oc3ccc(NC(=O)Nc4cc(C(C)(C)C)no4)c(F)c3)ccn2)cn1 [Example 1, 1-(3-t-butylisoxazol-5-yl)-3-(2-fluoro-4-(2-(1-methyl-1H-pyrazol-4-yl)pyridin-4-yloxy)phenyl)urea] | < 1 | < 0.1
Cn1cc(-c2cc(Oc3ccc(NC(=O)Nc4cc(C(C)(C)C)nn4C)c(F)c3)ccn2)cn1 [Example 2, 1-(3-t-butyl-1-methyl-1H-pyrazol-5-yl)-3-(2-fluoro-4-(2-(1-methyl-1H-pyrazol-4-yl)pyridin-4-yloxy)phenyl)urea] | < 1 | < 0.1
Cn1cc(-c2cc(Oc3ccc(NC(=O)Nc4cccc(C(F)(F)F)c4)c(F)c3)ccn2)cn1 [Example 3, 1-(2-fluoro-4-(2-(1-methyl-1H-pyrazol-4-yl)pyridin-4-yloxy)phenyl)-3-(3-(trifluoromethyl)phenyl)urea] | < 1 | < 0.1
Cn1cc(-c2cc(Oc3ccc(NC(=O)Nc4cnn(C(C)(C)C)c4)c(F)c3)ccn2)cn1 [Example 5, 1-(1-t-butyl-1H-pyrazol-4-yl)-3-(2-fluoro-4-(2-(1-methyl-1H-pyrazol-4-yl)pyridin-4-yloxy)phenyl)urea] | < 10 | < 0.1
Cn1cc(-c2cc(Oc3ccc(NC(=O)Nc4cncc(C(F)(F)F)c4)cc3)ccn2)cn1 [Example 6, 1-(4-(2-(1-methyl-1H-pyrazol-4-yl)pyridin-4-yloxy)phenyl)-3-(5-(trifluoromethyl)pyridin-3-yl)urea] | < 10 | < 0.1
Cn1cc(-c2cc(Oc3ccc(NC(=O)Nc4cnn(C(C)(C)C)c4)c(F)c3F)ccn2)cn1 [Example 8, 1-(1-tert-butyl-1H-pyrazol-4-yl)-3-(2,3-difluoro-4-(2-(1-methyl-1H-pyrazol-4-yl)pyridin-4-yloxy)phenyl)urea] | < 1 | < 0.1
Cn1cc(-c2cc(Oc3ccc(NC(=O)Nc4cnn(C(C)(C)C)c4C(F)(F)F)c(F)c3)ccn2)cn1 [Example 9, 1-(1-tert-butyl-5-(trifluoromethyl)-1H-pyrazol-4-yl)-3-(2-fluoro-4-(2-(1-methyl-1H-pyrazol-4-yl)pyridin-4-yloxy)phenyl)urea] | < 10 | < 100
Cc1c(NC(=O)Nc2ccc(Oc3ccnc(-c4cnn(C)c4)c3)cc2F)cnn1C(C)(C)C [Example 10, 1-(1-tert-butyl-5-methyl-1H-pyrazol-4-yl)-3-(2-fluoro-4-(2-(1-methyl-1H-pyrazol-4-yl)pyridin-4-yloxy)phenyl)urea] | < 10 | < 10
Cn1cc(-c2cc(Oc3ccc(NC(=O)Nc4nnc(C(C)(C)C)s4)c(F)c3)ccn2)cn1 [Example 11, 1-(5-tert-butyl-1,3,4-thiadiazol-2-yl)-3-(2-fluoro-4-(2-(1-methyl-1H-pyrazol-4-yl)pyridin-4-yloxy)phenyl)urea] | < 10 | < 0.1
CN(C)CCn1nc(C(C)(C)C)cc1NC(=O)Nc1ccc(Oc2ccnc(-c3cnn(C)c3)c2)cc1F [Example 12, 1-(3-tert-butyl-1-(2-(dimethylamino)ethyl)-11H-pyrazol-5-yl)-3-(2-fluoro-4-(2-(1-methyl-1H-pyrazol-4-yl)pyridin-4-yloxy)phenyl)urea] | < 10 | < 0.1
Cn1cc(-c2cc(Oc3ccc(NC(=O)Nc4cnn(C5CCCC5)c4)c(F)c3)ccn2)cn1 [Example 15, 1-(1-cyclopentyl-1H-pyrazol-4-yl)-3-(2-fluoro-4-(2-(1-methyl-1H-pyrazol-4-yl)pyridin-4-yloxy)phenyl)urea] | < 10 | < 0.1
Cn1cc(-c2cc(Oc3ccc(NC(=O)Nc4cncc(C(F)(F)F)c4)c(F)c3)ccn2)cn1 [Example 21, 1-(2-fluoro-4-(2-(1-methyl-1H-pyrazol-4-yl)pyridin-4-yloxy)phenyl)-3-(5-(trifluoromethyl)pyridin-3-yl)urea] | < 1 | < 0.1
CC(C)c1cncc(NC(=O)Nc2ccc(Oc3ccnc(-c4cnn(C)c4)c3)cc2F)c1 [Example 22, 1-(2-fluoro-4-(2-(1-methyl-1H-pyrazol-4-yl)pyridin-4-yloxy)phenyl)-3-(5-isopropylpyridin-3-yl)urea] | < 1 | < 0.1
Cn1cc(-c2cc(Oc3ccc(NC(=O)Nc4cc(C(C)(C)C)no4)c(F)c3F)ccn2)cn1 [Example 25, 1-(3-tert-butylisoxazol-5-yl)-3-(2,3-difluoro-4-(2-(1-methyl-1H-pyrazol-4-yl)pyridin-4-yloxy)phenyl)urea] | < 0.1 | < 0.1
Cn1cc(-c2cc(Oc3ccc(NC(=O)Nc4cc(C(F)(F)F)c[nH]c4=O)c(F)c3)ccn2)cn1 [Example 27, 1-(2-fluoro-4-(2-(1-methyl-1H-pyrazol-4-yl)pyridin-4-yloxy)phenyl)-3-(2-oxo-5-(trifluoromethyl)-1,2-dihydropyridin-3-yl)urea] | < 1 | < 0.1
Cc1oc(C(C)(C)C)cc1NC(=O)Nc1ccc(Oc2ccnc(-c3cnn(C)c3)c2)cc1F [Example 28, 1-(5-tert-butyl-2-methylfuran-3-yl)-3-(2-fluoro-4-(2-(1-methyl-1H-pyrazol-4-yl)pyridin-4-yloxy)phenyl)urea] | < 10 | < 0.1
Cn1cc(-c2cc(Oc3ccc(NC(=O)Nc4cnc(C(C)(C)C)nc4N4CCOCC4)c(F)c3)ccn2)cn1 [Example 41, 1-(2-tert-butyl-4-morpholinopyrimidin-5-yl)-3-(2-fluoro-4-(2-(1-methyl-1H-pyrazol-4-yl)pyridin-4-yloxy)phenyl)urea] | < 100 | < 100
Cn1cc(-c2cc(Oc3ccc(NC(=O)Nc4cc(C(F)(F)F)cnc4-c4cnn(C)c4)c(F)c3)ccn2)cn1 [Example 42, 1-(2-fluoro-4-(2-(1-methyl-1H-pyrazol-4-yl)pyridin-4-yloxy)phenyl)-3-(2-(1-methyl-1H-pyrazol-4-yl)-5-(trifluoromethyl)pyridin-3-yl)urea] | < 1 | < 0.1
